Assay results: patent US10961234B2, “Oxazole derivatives for use in the treatment of cancer” (LIFEARC, priority 2016, dated 2021)

Legend:
[1] = tested on: LM2 and MDA-MB-231 breast cancer cell lines; experiment: PAICS 2D cell proliferation assay; type: cell-based; details: Homo sapiens; 72 hours incubation; cell line (LM2 or MDA-MB-231) not given
Description: Frozen cryovial stocks of LM2 and MDA-MB-231 breast cancer cell lines were thawed and cultured in 4.5 g/L glucose DMEM (31966-047, Invitrogen) supplemented with 10% Fetal Bovine Serum (10500-064, Invitrogen) until confluent in a T175 flask. Cells were incubated at 37° C. with 5% CO2 in a humidified incubator.
Cells were collected from T175 flasks by washing with PBS (10010-056, Invitrogen) and dissociated using Accutase (A6964, Sigma Aldrich). This was followed by centrifuging (1200 rpm, 5 min) and resuspending the cells in 10 ml of media containing 1% penicillin/streptomycin (15140-122, Invitrogen). Cells were counted by trypan blue exclusion method using an automated cell counter (Cellometer) and diluted to a concentration of 40,000/ml. 1000 cells were then seeded into 384-well white-walled plates (Corning, 3707) in a volume of 25 μl. Plates were incubated overnight at 37° C. with 5% CO2.
After 24 hours, PAICS compounds were added onto the assay plates using an HP D300 Digital Dispenser (Hewlett Packard). 10 mM stocks were used and dispensed as a 10 point concentration response curve (CRC) ½ log dilution series with a final top concentration of 100 μM. Controls were added onto each plate: positive controls included Staurosporine CRC (100 μM stock dispensed as a 10 point CRC ½ log dilution series with a final top concentration of 1 μM) and PAICS compound MRT00211919 (10 mM stock dispensed as a 10 point CRC ½ log dilution series with a final top concentration of 100 μM); a high control of Staurosporine (0.1 μM (LM2), 0.316 μM (MDA-MB-231) FAC) and a low control of media containing 1% DMSO. A final concentration of 1% DMSO was then added across the plates for normalisation. Following compound addition, assay plates were incubated for 72 hours at 37° C. with 5% CO2.
After 72 h incubation, dead and viable cells were measured in each assay plate. Cytotoxicity was assessed through fluorescent DNA staining using the CellTox™ Green Cytotoxicity Assay kit (G8743, Promega) following the manufacturer's multiplexing protocol. Impaired cell membrane integrity results in the access of dye to stain DNA allowing quantification of dead cells. Cell viability was determined following ATP quantification using the CellTiter-Glo® Luminescent Cell Viability Assay kit (G7572, Promega) following the manufacturer's protocol. ATP released from lysed cells allowed for the generation of a signal proportional to the number of cells present in the well. All endpoint reads were performed using the PheraSTAR Plus (BMG Labtech). Data is expressed as % viable cells and % dead cells against controls (mean±SEM of duplicate curves).

WT full length PAICS = target: T1, WT full length PAICS (Homo sapiens, UniProt P22234); experiment: Biochemical assay to measure PAICS activity (Transcreener ADP2 FI, SAICAR synthetase reaction); details: PAICS 2.5 nM, 30 mins pre-incubation, ADP detection by fluorescence intensity
T1 construct: 5 μl WT full length PAICS (final assay concentration, fac, 2.5 nM) in basic buffer
T1 sequence (P22234 1-425): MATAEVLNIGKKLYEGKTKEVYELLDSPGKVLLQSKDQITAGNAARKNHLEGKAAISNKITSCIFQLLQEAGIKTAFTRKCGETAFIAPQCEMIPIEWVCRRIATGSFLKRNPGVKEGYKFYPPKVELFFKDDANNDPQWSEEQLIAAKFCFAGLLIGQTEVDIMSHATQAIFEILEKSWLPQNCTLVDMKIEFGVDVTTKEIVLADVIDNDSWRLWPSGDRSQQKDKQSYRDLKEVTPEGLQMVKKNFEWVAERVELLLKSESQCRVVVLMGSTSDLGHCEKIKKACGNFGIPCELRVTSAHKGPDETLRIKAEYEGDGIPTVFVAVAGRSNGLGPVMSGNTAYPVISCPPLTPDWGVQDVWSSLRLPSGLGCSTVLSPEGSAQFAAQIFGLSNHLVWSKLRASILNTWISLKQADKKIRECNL
From the text: The biochemical assay was used to measure PAICS SAICAR synthetase-mediated conversion of CAIR, aspartic acid and ATP to SAICAR, ADP and inorganic phosphate (PI), post-AIR/CAIR equilibration (see FIG. 3). This was achieved by detecting the ADP generated during the reaction, using Bellbrook Lab's Transcreener ADP^2 FI assay. An increase in the fluorescence intensity is directly proportional to the amount of PAICS activity.
The Transcreener ADP^2 FI assay is a homogeneous competitive displacement fluorescence intensity assay which uses direct immunodetection of ADP. Displacement of the tracer by ADP causes an increase in the fluorescence at excitation 590 nm and emission 617 nm (FIG. 3).
5 μl WT full length PAICS (final assay concentration, fac, 2.5 nM) in basic buffer, added to black, non-binding, 384-well plates (Corning #3575), columns 1 to 22.5 μl basic buffer was added to columns 23+24 (negative control). PAICS stock at 31.9 μM from the PI's lab (Steve Firestine). Basic buffer contained 50 mM Tris-HCl pH8 and 0.5 mM EDTA, fac.
1 μl compound in 100% DMSO added per well, or 1 μl 100% DMSO to positive controls (columns 1+2) and negative controls (columns 23+24). Final assay top concentration of compound either 1 mM or 30 μM, serially diluted with half-log dilutions across the plate in duplicate (one 10-point concentration response curve across wells 3 to 12, another across 13 to 22). Compounds pre-incubated with PAICS enzyme for 30 mins at RT.
2 μl CAIR added (fac 10 μM) in basic buffer plus 25 mM MgCl2 and 50 mM KHCO3 fac to all wells. CAIR stock 50 mM from Steve Firestine's lab. 1 hr RT incubation for AIR-CAIR equilibration. NB: ˜50% CAIR is decarboxylated during equilibration therefore 5 μM remains for the synthetase reaction.
2 μl ATP/aspartic acid added (fac 30 μM/180 μM) in reaction buffer to all wells. 30 mins RT incubation for appropriate level of ATP turnover. Reaction buffer contained basic buffer plus 10 mM DTT, 0.01% BSA and 0.01% Brij 35, fac.
10 μl ADP detection reagent added to all wells (as per instructions, Transcreener ADP^2 FI kit, BellBrook Labs #3013-10K). Incubation for 1 h at RT to allow antibody equilibration. Fluorescence intensity determined using a Tecan Safire2 (excitation at 590 nm, emission at 617 nm).

Row | EC50 [1] [nM] | IC50 (WT full length PAICS) [nM] | SMILES
1 | 250 to 500 | 25 to 100 | CN(C)CCOc1ccc(-c2ccc(Cl)c(NC(=O)c3coc(N)n3)c2)cn1 [Example 73, 2-Amino-N-(2-chloro-5-(6-(2-(dimethylamino)ethoxy)pyridin-3-yl)phenyl)oxazole-4-carboxamide]
2 | 250 to 500 | 25 to 100 | CN(C)CCOc1ncc(-c2ccc(Cl)c(NC(=O)c3coc(N)n3)c2)cn1 [Example 74, 2-Amino-N-(2-chloro-5-(2-(2-(dimethylamino)ethoxy)pyrimidin-5-yl)phenyl)oxazole-4-carboxamide]
3 | 100 to 250 | 25 to 100 | CN(C)CCOc1ccc(-c2ccc(Cl)c(NC(=O)c3coc(N)n3)c2)cc1 [Example 75, 2-Amino-N-{4-chloro-4′-[2-(dimethylamino)ethoxy]biphenyl-3-yl}-1,3-oxazole-4-carboxamide]
4 | 250 to 500 | 25 to 100 | Nc1nc(C(=O)Nc2cc(-c3ccc(CN4CCNCC4)nc3)ccc2Cl)co1 [Example 76, 2-Amino-N-{2-chloro-5-[6-(piperazin-1-ylmethyl)pyridin-3-yl]phenyl}-1,3-oxazole-4-carboxamide]
5 | 250 to 500 | 10 to 25 | Nc1nc(C(=O)Nc2cc(-c3ccc(CN[C@H]4CC[C@H](N)CC4)nc3)ccc2Cl)co1 [Example 77, 2-Amino-N-[5-(6-{[(trans-4-aminocyclohexyl)amino]methyl}pyridin-3-yl)-2-chlorophenyl]-1,3-oxazole-4-carboxamide]
6 | 100 to 250 | 10 to 25 | CN1CCC(NCc2ccc(-c3ccc(Cl)c(NC(=O)c4coc(N)n4)c3)cn2)CC1 [Example 78, 2-Amino-N-[2-chloro-5-(6-{[(1-methylpiperidin-4-yl)amino]methyl}pyridin-3-yl)phenyl]-1,3-oxazole-4-carboxamide]
7 | 250 to 500 | 10 to 25 | Nc1nc(C(=O)Nc2cc(-c3ccc(CN4CC5CNCC5C4)nc3)ccc2Cl)co1 (stereo not shown) [Example 79, 2-Amino-N-{2-chloro-5-[6-(hexahydropyrrolo[3,4-c]pyrrol-2(1H)-ylmethyl)pyridin-3-yl]phenyl}-1,3-oxazole-4-carboxamide]
8 | 250 to 500 | 25 to 100 | Nc1nc(C(=O)Nc2cc(-c3cnn(CCN4CCNCC4)c3)ccc2Cl)co1 [Example 81, 2-Amino-N-(2-chloro-5-{1-[2-(piperazin-1-yl)ethyl]-1H-pyrazol-4-yl}phenyl)-1,3-oxazole-4-carboxamide]
9 | 250 to 500 | 10 to 25 | Nc1nc(C(=O)Nc2cc(-c3cnc(OC4CCNCC4)nc3)ccc2Cl)co1 [Example 82, 2-Amino-N-{2-chloro-5-[2-(piperidin-4-yloxy)pyrimidin-5-yl]phenyl}-1,3-oxazole-4-carboxamide]
10 | 250 to 500 | 25 to 100 | CN1CCN(Cc2ccc(-c3ccc(Cl)c(NC(=O)c4coc(N)n4)c3)cn2)CC1 [Example 83, 2-Amino-N-(2-chloro-5-{6-[(4-methylpiperazin-1-yl)methyl]pyridin-3-yl}phenyl)-1,3-oxazole-4-carboxamide]
11 | 250 to 500 | 10 to 25 | Nc1nc(C(=O)Nc2cc(-c3ccc(OC4CCNCC4)nc3)ccc2Cl)co1 [Example 84, 2-Amino-N-{2-chloro-5-[6-(piperidin-4-yloxy)pyridin-3-yl]phenyl}-1,3-oxazole-4-carboxamide]
12 | < 100 | < 10 | Nc1nc(C(=O)Nc2cc(-c3cnc(OC4CCNCC4)s3)ccc2Cl)co1 [Example 87, 2-Amino-N-{2-chloro-5-[2-(piperidin-4-yloxy)-1,3-thiazol-5-yl]phenyl}-1,3-oxazole-4-carboxamide]
13 | < 100 | < 10 | Nc1nc(C(=O)Nc2cc(-c3nc(CN4CCNCC4)cs3)ccc2Cl)co1 [Example 89, 2-Amino-N-{2-chloro-5-[4-(piperazin-1-ylmethyl)-1,3-thiazol-2-yl]phenyl}-1,3-oxazole-4-carboxamide]
14 | 100 to 250 | 10 to 25 | Nc1nc(C(=O)Nc2cc(-c3cnc(CN4CCNCC4)s3)ccc2Cl)co1 [Example 90, 2-Amino-N-{2-chloro-5-[2-(piperazin-1-ylmethyl)-1,3-thiazol-5-yl]phenyl}-1,3-oxazole-4-carboxamide]
